Where two headings read alike, the source gives them in different places.
Tests used:
[1] = target: T1, N-NTD (N N-terminal region, residues 31 to 252) (Human respiratory syncytial virus A, UniProt P03418); assay: NMR chemical shift perturbation titration (1H,15N-HSQC), dissociation constants; assay type: binding, respiratory syncytial virus (RSV); settings: 50 μM 15N-labeled N-NTD, two-site fast exchange model, 1:1 stoichiometry
T1 construct: N N-terminal region (N-NTD, residues 31 to 252); made in house; host or cells: E. coli BL21(DE3)
Procedure: N-NTD samples uniformly labeled with stable isotopes for NMR measurements were produced in minimal M9 medium supplemented with 1 g/L ^15NH4Cl and 3 g/L unlabeled or ^13C-glucose. The protocols were adapted from rich medium: an initial preculture of 15 mL in LB medium was used to inoculate a 500 mL M9 culture grown to saturation, and 500 mL of fresh M9 medium were added before induction. Purification was carried out as described above and followed by a final dialysis step to exchange the sample into NMR buffer (20 mM MES pH 6.5, 250 mM NaCl, 1.5 mM TCEP). A U-^13C, ^15N, 70%-^2H labeled N-NTD sample was prepared by starting from a 100 mL preculture in LB medium, used to inoculate 1 L of unlabeled M9. […]
Chemical shift perturbation (CSP) experiments were carried out with 50 μM U-^15N labeled N-NTD on a 700 MHz Bruker Avance III spectrometer equipped with a TXI probe by adding increasing amounts of M61, M68, M72, M76 and M81 from concentrated stock solutions (25, 10 or 5 mM) in ethanol. […] Dissociation constants were determined for a given residue, assuming a two-site fast exchange model with a 1:1 stoichiometry, by fitting the chemical shift difference (δ−δfree) as a function of molar ratios in Origin 7 software (OriginLab).
Combined ^1H and ^15N CSPs were calculated from: Δδ^1H^15N=√{square root over ((δ1H−δ1H^free)^2+(δ15N−δ15N^free)^2/100)}. […]

P-CTD/N-NTD interaction = target: T2, P-CTD/N-NTD interaction (Human respiratory syncytial virus A, UniProt P03418); assay: Surface plasmon resonance competition assay (N-NTD binding to captured GST-P-CTD); parameters: species or system respiratory syncytial virus (RSV); settings: 25° C., 20 mM TrisHCl pH 8, 150 mM NaCl, N-NTD 20 μM; read-out: Ki (inhibition of P-CTD/N-NTD interaction, SPR)
T2 construct: N N-terminal region (N-NTD, residues 31 to 252); made in house; host or cells: E. coli BL21(DE3)
Procedure: The assays were carried out at 25° C. in a buffer 20 mM TrisHCl, pH 8, 150 mM NaCl.
A goat anti-GST antibody (Biacore GST Capture Kit) was covalently coupled to a CMS sensorchip, using a Biacore 2000 instrument and the Amine Coupling Kit (GE Healthcare), reaching an immobilization density of around 10000 resonance units (RU; 1RU≈1 pg.mm-2). This surface was used to capture tightly GST-fused P-CTD to a density of 1200-1300 RU, or GST (800 RU) as a control. N-NTD (20 μM), alone or mixed and equilibrated for over 2 hours with the different inhibitor candidates (concentration range: 5-750 μM), was then injected over the GST-P-CTD and GST surfaces for one minute at a flow rate of […]. After each injection, the interaction buffer was flowed on the surface until all the N-NTD molecules dissociated (taking advantage of the transient nature of the N-NTD/P-CTD interaction). At the end of the series, the surfaces were regenerated with a 2-min 10 mM glycine-HCl (pH 1.5) wash and two 1-min washes with 0.05% SDS and 20 mM NaOH. The real-time interaction profiles were double referenced using the Scrubber 2.0 software (BioLogic Software), that is both the signals from the reference surface (with GST captured on the anti-GST antibody) and from blank experiments using the compounds alone were subtracted. The steady-state SPR responses (Req) were plotted against the compound concentration C and fitted using the BIAevaluation 4.1 software (GE Healthcare), according to the following equation:
[formula] where is the concentration of N-NTD (20 μM) and R0 the steady-state SPR response for N-NTD alone, allowing to determine the inhibition constants Ki for each compound. Isothermal Titration Calorimetry
SPR signals are proportional to the molecular weight of the analytes and therefore, given the small molecular weight of selected compounds, direct binding between N-NTD and BPdC would have too small signals on the used instrument. Instead, the inventors resorted to indirect competition assays to assess the effect of BPdC on the interaction between surface-bound P-CTD and N-NTD. The inventors first characterized by SPR the specific interactions between P-CTD in fusion with GST (GST-P-CTD) and N-NTD. GST-P-CTD was immobilized on an anti-GST antibody surface and serial dilutions of N-NTD were injected. The interaction between the two domains was transient, with a very fast dissociation rate (koff>1 s^−1) and a Kd of 30 μM. Competition experiments were then performed with the BPdC compounds. […] Both compounds carried a specific Cl substituent in ortho on the benzyl ring, but addition of another Cl atom in para position, on M76, somewhat enhanced inhibition. […] The inhibitory properties of the compounds were directly related to their affinities for N-NTD with M72<M61<M68<M81<M76.

HEp-2 cells = assay: CellTiter-Glo Luminescent cell viability assay (cytotoxicity); assay type: cell-based; settings: 48 h
Procedure: Compound M76b was solubilized at 10 mM in 100% v/v DMSO and further diluted in water to 1 mM, then serially diluted threefold in minimum essential medium (MEM) without phenol red (Gibco) to a final concentration of 5 nM. DMSO dilutions in the same range were also used as controls. HEp-2 cells (ATCC number CCL-23) were seeded at 5×10^4 cells per well in 96-well plates the day before. Infection was carried out with 500 pfu of rHRSV-mCherry in MEM without phenol red. 2 h after infection, the medium was changed to MEM with 2% fetal calf serum and without phenol red. Compound dilutions were pre-incubated with viral suspensions for 5 min at 37° C. before addition on cell monolayers in the 96-well plates. After treatment with compound M76b in DMSO or with DMSO alone, plates were incubated at 37° C. and 5% CO2 for 48 h.
Cytotoxicity was assayed with the CellTiter-Glo Luminescent cell viability assay (Promega) after 48 h of incubation with DMSO alone or threefold dilutions of compound M76 in DMSO from 1 mM to 12 μM.

rHRSV-mCherry = assay type: cell-based, recombinant human RSV; settings: 48 h, HEp-2 cells
Procedure: DMSO dilutions in the same range were also used as controls. HEp-2 cells (ATCC number CCL-23) were seeded at 5×10^4 cells per well in 96-well plates the day before. Infection was carried out with 500 pfu of rHRSV-mCherry in MEM without phenol red. 2 h after infection, the medium was changed to MEM with 2% fetal calf serum and without phenol red. Compound dilutions were pre-incubated with viral suspensions for 5 min at 37° C. before addition on cell monolayers in the 96-well plates.
Fluorescence, expressed in relative fluorescence units, was measured using a spectrofluorimeter (Tecan infinite M200PRO) with excitation and emission wavelengths of 580 and 620 nm, respectively. Non-infected HEp-2 cells were used a standard for fluorescence background level.

N-NTD = target: T3, N-NTD (Human respiratory syncytial virus A, UniProt P03418); assay: Isothermal titration calorimetry; assay type: binding, respiratory syncytial virus (RSV); settings: 18° C.; for Kd: 20 mM Tris-HCl pH 8, 150 mM NaCl, 5% Ethanol, 30 μM N-NTD, read-out: Kd (ITC); for ΔH (binding enthalpy, ITC) / −TΔS (entropic contribution, ITC): 1:1 interaction model
T3 construct: N N-terminal region (N-NTD, residues 31 to 252); made in house; host or cells: E. coli BL21(DE3)
Procedure: ITC experiments were performed using the high precision VP-ITC system (MicroCal, GE Healthcare) and quantified with the Origin7 software provided by the manufacturer. All molecules were dissolved in 20 mM Tris-HCl, pH 8, 150 mM NaCl, 5% Ethanol and the binding enthalpies were measured by injecting the M76 or M61 solutions at 1.5 mM into calorimetric cell containing 30 μM N-NTD solution. Titrations were performed at 18° C. with 7 μl injections of M76 or M61 ligands every 350s. Heat signals were corrected for the heats of dilution and normalized to the amount of compound injected. Binding stoichiometries, enthalpy values and equilibrium dissociation constants were determined by fitting the corrected data to a 1:1 interaction model using the Origin7 software (OriginLab).
In parallel, the inventors investigated the properties of binding abilities of the di-substituted M76- and unsubstituted M61 to N-NTD by ITC. The purified N-NTD domain was loaded into the calorimeter cell and titrated with the compounds.

T3 sequence (P03418 31-252): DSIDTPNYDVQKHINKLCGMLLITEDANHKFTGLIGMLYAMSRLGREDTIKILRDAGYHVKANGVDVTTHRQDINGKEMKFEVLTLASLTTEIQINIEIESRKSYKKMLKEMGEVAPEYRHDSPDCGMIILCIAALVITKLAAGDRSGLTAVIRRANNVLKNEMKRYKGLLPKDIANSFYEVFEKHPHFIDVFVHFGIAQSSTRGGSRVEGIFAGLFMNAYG
T2 sequence (P03418 31-252): as above
T1 sequence (P03418 31-252): as above

| Structure (SMILES) | Kd [1] | Ki (P-CTD/N-NTD interaction) | Kd (N-NTD) | ΔH (binding enthalpy, ITC) (N-NTD) | −TΔS (entropic contribution, ITC) (N-NTD) | further results |
| --- | --- | --- | --- | --- | --- | --- |
| O=C(O)c1cc(C(=O)O)n(Cc2ccc(F)cc2)n1 [M72, 1-(4-fluoroBenzyl)-pyrazole-3,5-dicarboxylate] | 680 µM | 1660 ± 290 µM | – | – | – | – |
| O=C(O)c1cc(C(=O)O)n(Cc2ccc(Br)cc2)n1 [M68, 1-(4-bromoBenzyl)-pyrazole-3,5-dicarboxylate] | – | 610 ± 82 µM | – | – | – | – |
| CC(=O)OCOC(=O)c1cc(C(=O)OCOC(C)=O)n(Cc2ccc(Cl)cc2Cl)n1 [M76b] | – | – | – | – | – | cell survival (HEp-2 cells; 111 μM): more than 95%; cell survival (HEp-2 cells; 333 μM): 25%; relative fluorescence (rHRSV-mCherry; 111 μM, relative to control without M76b and DMSO): 40%; relative fluorescence (rHRSV-mCherry; 333 μM, relative to control without M76b and DMSO): less than 20%; relative fluorescence (rHRSV-mCherry; concentrations under 12 μM): above 80% |
| O=C(O)c1cc(C(=O)O)n(Cc2ccc(Cl)cc2Cl)n1 [M76, 1-(2,4-dichloroBenzyl)-pyrazole-3,5-dicarboxylate] | 20 µM | 155 ± 25 µM | 48 ± 8 µM | -11.0 ± 3.6 kcal/mol | 5.4 ± 3.8 kcal/mol | – |
| O=C(O)c1cc(C(=O)O)n(Cc2ccccc2Cl)n1 [M81, 1-(2-chloroBenzyl)-pyrazole-3,5-dicarboxylate] | – | 247 ± 39 µM | – | – | – | – |
| O=C(O)c1cc(C(=O)O)n(Cc2ccccc2)n1 [M61, 1-(Benzyl)-pyrazole-3,5-dicarboxylate] | – | 893 ± 86 µM | 510 ± 170 µM | -6.42 ± 2.42 kcal/mol | 2.2 ± 1.8 kcal/mol | – |
